4 compounds from patent publication US20260284074A1, “ENT1 Inhibitors in Combination with Checkpoint Inhibitors” (iTeos Belgium SA, priority 2023, published 2026) can be followed below.

Data set [1] in a line: Dynamic vapor sorption (DVS). It is filed as physicochemical. The procedure: (§1) METHOD A: In Example 5, approximately 5-15 mg of sample was placed into a mesh vapor sorption balance pan and loaded into either a DVS Intrinsic or DVS Advantage dynamic vapor sorption balance by Surface Measurement Systems. The sample was subjected to a ramping profile from 40-90% relative humidity (RH) at 10% increments, maintaining the sample at each step until a stable weight had been achieved (dm/dt 0.004%, minimum step length 30 minutes, maximum step length 500 minutes) at 25° C. After completion of the sorption cycle, the sample was dried using the same procedure to 0% RH and then a second sorption cycle back to 40% RH was carried out. Two cycles were performed. The weight change during the sorption/desorption cycles were plotted, allowing the hygroscopic nature of the sample to be determined. XRPD analysis was then carried out on the residual solid.
as §1, with “B:” for “A:”, “1,” for “5,”, “10-20” for “5-15”, “determined.” for “determined. XRPD analysis was then carried out on the residual solid.”

For data set [2], the system named is human T cells. Kind of data set: [3H]adenosine uptake in activated human T cells. It is filed as cell-based. An excerpt: Applicant observed that activated human T cells took up [3H]adenosine, and this uptake was reduced in the presence of the selective ENT1 inhibitor dilazep, confirming that ENT1 is the dominant transporter involved in adenosine uptake in T cells.
Human T cells were activated for 2 days in the presence of Compound 1 or dilazep. The cells were then washed and used in a [^3H]adenosine uptake experiment. […] (See FIG. 27A.)

Data set [3] deals with human T cells. Kind of data set: T cell proliferation by CFSE dilution in the presence of ATP. The data set is classed as cell-based. To be noted: human T cells activated in presence of 100 μM ATP, CFSE dilution, read-out: IC50, restoration of T cell proliferation. Here is the method:
Human T cells were activated in the presence of 100 μM ATP and dilazep or Compound 1 and proliferation was monitored by CarboxyFluoroscein Succinimidyl Ester (CFSE) dilution. […] (See FIG. 27B.)

Data set [4] has as its system MDA-MB-231 cells. Kind of data set: MDA-MB-231 subcutaneous tumor model in humanized NCG mice. The data set is classed as in vivo, mouse. As to conditions: day 51; Compound 1 30 mg/kg i.p. twice a day; nivolumab 10 mg/kg i.p. every 5 days. The procedure: The anti-tumor therapeutic efficacy of Compound 1 monotherapy, nivolumab monotherapy, and Compound 1-nivolumab combination therapy was assessed in ‘humanized’ mice with subcutaneous tumors resulting from the subcutaneous injection of MDA-MB-231 cells, a human triple-negative breast cancer cell line.
Human cell line xenograft experiments were performed at Transcure (France) and all associated animal procedures were reviewed and approved by the local ethics committee. The experiment was carried out with the NOD-Prkdc^em26cd52Il2rg^em26cd22/NjuCrl immunodeficient mouse strain (NCG from Charles River Laboratories, Wilmington, MA, USA). Four-week-old immunodeficient NCG mice were engrafted with cord-blood-derived human CD34^+ hematopoietic stem and progenitor cells (French Blood Institute, Paris, France) 2 days after chemical myeloablative treatment. Fourteen weeks after cell injection, engraftment level was monitored with the analysis of human CD45^+ cells among total blood leukocytes by flow cytometry (Attune, Life Technologies/Thermo Fisher Scientific, Waltham, MA, USA). […]
All the animals used were monitored daily, checking their clinical signs of distress and body weight and tumors were measured three times a week using an electronic caliper. The tumor volume was determined by applying the formula Length×(Width)^2×0.5. […]

As for `COc1cc(C(=O)O[C@@H]2CCCOc3cc(cc(OC)c3OC)C(=O)NCCCN3CCCN(CC2)CC3)cc(OC)c1OC`, the “Water uptake (DVS)” value amounted to 3.3% in data set [1] (at 80% RH, second sorption cycle, after likely formation of amorphous material); 0.9% in data set [1] (between 40-80% RH, first sorption cycle); 3.8% in data set [1] (further uptake between 80-90% RH, first sorption cycle). For the same compound, the “Hygroscopicity (DVS)” value in data set [1] (first sorption cycle, 25° C.) is “slightly hygroscopic”.
For `COc1cc(C(=O)O[C@@H]2CCCOc3cc(cc(OC)c3OC)C(=O)NCCCN3CCCN(CC2)CC3)cc(OC)c1OC` (single isomer, unassigned), the “Moisture uptake (DVS)” value in data set [1] (RH raised to 80% from 10%, 25° C.) is reported as 1.7%; in data set [1] (between 0 and 10% RH, 25° C.), “about 6.3%”.
Consider `COc1cc(C(=O)OCCCN2CCCN(CCCOC(=O)c3cc(OC)c(OC)c(OC)c3)CC2)cc(OC)c1OC` [dilazep], for which the IC50 turned out to be 1.2 nM in data set [2] (Homo sapiens, T-cell, T cells activated 2 days in presence of compound, washed, [3H]adenosine uptake, read-out: IC50, inhibition of uptake of adenosine into human T cells) and 2.4 nM in data set [3]. Moreover, the “[3H]adenosine uptake by activated human T cells” value in data set [2] (in the presence of the inhibitor) is “reduced”.
“nivolumab [anti-PD-1, reference compound]”: in data set [4], the “Tumor volume compared with vehicle group” value was “not statistically significantly different”.
